Among the data in article PMC9959817, “Flow-Based Fmoc-SPPS Preparation and SAR Study of Cathelicidin-PY Reveals Selective Antimicrobial Activity” (Molecules, 2023) are MIC values, retold here.

Each structure is given as a SMILES string. Where a SMILES comes first, the peptide text is derived from it. Bridges are numbered along the chain shown (N, C = ends). [ ]: non-standard residue; d: D form. Dab = NCC[C@H](N)C(=O)O Bounds are passed on as bounds.

One assay concerns C. albicans (SC5314). In words: microbe, parasite or virus in culture. It counts as cell-based, Candida albicans. The note with it: SC5314; read-out: Minimum Inhibitory Concentration. An excerpt:
(§1) As we were primarily interested in the clinical potential of cathelicidin-PY (1) and its analogues 2–9, cation-adjusted Mueller-Hinton broth (CAMHB) was implemented during our in vitro antimicrobial screening towards bacteria. However, non-cation adjusted Mueller Hinton broth (MHB) was also implemented to evaluate the cation sensitivity of these AMPs. In each medium, compounds 1–9 were subjected to minimum inhibitory concentration (MIC) assays with E. coli (ATCC 25922), P. aeruginosa (SVB-B9), and S. aureus (ATCC 29213), in accordance with CLSI microbroth dilution protocols (Table 1). It is noteworthy, however, that the initial report of cathelicidin-PY’s isolation documented MIC assays performed in Luria Broth (LB). Furthermore, antifungal activity towards C. albicans was investigated.
Antimicrobial susceptibility of Candida albicans SC5314 (type strain) was assessed by broth microdilution in RPMI 1640 media in accordance with the CLSI recommended protocols. All assays were performed independently on three occasions, with the reported MIC defined as the lowest concentration for which agreement was observed consistently for all replicates.

Another assay has as its system S. aureus (ATCC 29213). The experiment in a line: microbe, parasite or virus in culture. In kind it is cell-based, Staphylococcus aureus. The note with it: ATCC 29213; read-out: Minimum Inhibitory Concentration.
From the text: as §1
Staphylococcus aureus ATCC 29213, Pseudomonas aeruginosa (SVB-B9) (type strain), and Escherichia coli ATCC 25,922 were grown in either non-cation-adjusted or cation-adjusted Mueller Hinton (MH) broth at 37 °C with shaking (200 rpm). MIC assays were performed in technical triplicate in accordance with the CLSI-recommended protocol. All assays were performed independently on three occasions, with the reported MIC defined as the lowest concentration for which agreement was observed consistently for all replicates.

With `CC[C@H](C)[C@H](NC(=O)[C@H](Cc1c[nH]cn1)NC(=O)[C@H](CO)NC(=O)[C@@H](NC(=O)[C@@H](NC(=O)[C@@H](NC(=O)[C@@H](NC(=O)[C@H](CCCNC(=N)N)NC(=O)[C@H](CC(C)C)NC(=O)[C@H](CCCCN)NC(=O)[C@H](CCC(=O)O)NC(=O)[C@H](CCCCN)NC(=O)[C@H](CC(C)C)NC(=O)[C@H](CCCCN)NC(=O)[C@@H]1CCNC(=O)CC[C@H](NC(=O)[C@H](CCCCN)NC(=O)[C@@H](N)CCCNC(=N)N)C(=O)N[C@@H](CC(N)=O)C(=O)N[C@@H](Cc2ccccc2)C(=O)N[C@@H](CC(C)C)C(=O)N1)[C@@H](C)O)C(C)C)[C@@H](C)CC)[C@@H](C)O)C(=O)N[C@@H](CC(=O)O)C(=O)N[C@@H](CCCCN)C(=O)N[C@H](C(=O)N[C@@H](CC(C)C)C(=O)N[C@@H](CCCNC(=N)N)C(=O)N1CCC[C@H]1C(=O)N[C@@H](CCC(N)=O)C(=O)NCC(=O)O)C(C)C` [Compound 9] (H-RKENFL[Dab]KLKEKLRTVITSHIDKVLRPQG-OH; lactam 3-7), the MIC with C. albicans (SC5314) and with S. aureus (ATCC 29213) was over 64 µM throughout.
With `CC[C@H](C)[C@H](NC(=O)[C@H](Cc1c[nH]cn1)NC(=O)[C@H](CO)NC(=O)[C@@H](NC(=O)[C@@H](NC(=O)[C@@H](NC(=O)[C@@H](NC(=O)[C@H](CCCNC(=N)N)NC(=O)[C@H](CC(C)C)NC(=O)[C@H](CCCCN)NC(=O)[C@H](CCC(=O)O)NC(=O)[C@H](CCCCN)NC(=O)[C@H](CC(C)C)NC(=O)[C@H](CCCCN)NC(=O)[C@@H]1CCCCNC(=O)CC[C@H](NC(=O)[C@H](CCCCN)NC(=O)[C@@H](N)CCCNC(=N)N)C(=O)N[C@@H](CC(N)=O)C(=O)N[C@@H](Cc2ccccc2)C(=O)N[C@@H](CC(C)C)C(=O)N1)[C@@H](C)O)C(C)C)[C@@H](C)CC)[C@@H](C)O)C(=O)N[C@@H](CC(=O)O)C(=O)N[C@@H](CCCCN)C(=O)N[C@H](C(=O)N[C@@H](CC(C)C)C(=O)N[C@@H](CCCNC(=N)N)C(=O)N1CCC[C@H]1C(=O)N[C@@H](CCC(N)=O)C(=O)NCC(=O)O)C(C)C` [Compound 4] (H-RKENFLKKLKEKLRTVITSHIDKVLRPQG-OH; lactam 3-7), the MIC with C. albicans (SC5314) and in the assay with S. aureus (ATCC 29213) was over 64 µM throughout.
For the compound `CC[C@H](C)[C@H](NC(=O)[C@H](Cc1c[nH]cn1)NC(=O)[C@H](CO)NC(=O)[C@@H](NC(=O)[C@@H](NC(=O)[C@@H](NC(=O)[C@@H](NC(=O)[C@H](CCCNC(=N)N)NC(=O)[C@H](CC(C)C)NC(=O)[C@H](CCCCN)NC(=O)[C@H](CCC(=O)O)NC(=O)[C@H](CCCCN)NC(=O)[C@H](CC(C)C)NC(=O)[C@H](CCCCN)NC(=O)[C@@H]1CC(=O)NCCCC[C@H](NC(=O)[C@H](CCCCN)NC(=O)[C@@H](N)CCCNC(=N)N)C(=O)N[C@@H](CC(N)=O)C(=O)N[C@@H](Cc2ccccc2)C(=O)N[C@@H](CC(C)C)C(=O)N1)[C@@H](C)O)C(C)C)[C@@H](C)CC)[C@@H](C)O)C(=O)N[C@@H](CC(=O)O)C(=O)N[C@@H](CCCCN)C(=O)N[C@H](C(=O)N[C@@H](CC(C)C)C(=O)N[C@@H](CCCNC(=N)N)C(=O)N1CCC[C@H]1C(=O)N[C@@H](CCC(N)=O)C(=O)NCC(=O)O)C(C)C` [Compound 7] (H-RKKNFLDKLKEKLRTVITSHIDKVLRPQG-OH; lactam 3-7), the MIC with C. albicans (SC5314) and in the assay on S. aureus (ATCC 29213) was over 64 µM throughout.
